In assay [1] the target is T1, WTapPOL (intact exonuclease domain) (Plasmodium falciparum, UniProt Q8ILY1).
T1 sequence (Q8ILY1 1389-2016): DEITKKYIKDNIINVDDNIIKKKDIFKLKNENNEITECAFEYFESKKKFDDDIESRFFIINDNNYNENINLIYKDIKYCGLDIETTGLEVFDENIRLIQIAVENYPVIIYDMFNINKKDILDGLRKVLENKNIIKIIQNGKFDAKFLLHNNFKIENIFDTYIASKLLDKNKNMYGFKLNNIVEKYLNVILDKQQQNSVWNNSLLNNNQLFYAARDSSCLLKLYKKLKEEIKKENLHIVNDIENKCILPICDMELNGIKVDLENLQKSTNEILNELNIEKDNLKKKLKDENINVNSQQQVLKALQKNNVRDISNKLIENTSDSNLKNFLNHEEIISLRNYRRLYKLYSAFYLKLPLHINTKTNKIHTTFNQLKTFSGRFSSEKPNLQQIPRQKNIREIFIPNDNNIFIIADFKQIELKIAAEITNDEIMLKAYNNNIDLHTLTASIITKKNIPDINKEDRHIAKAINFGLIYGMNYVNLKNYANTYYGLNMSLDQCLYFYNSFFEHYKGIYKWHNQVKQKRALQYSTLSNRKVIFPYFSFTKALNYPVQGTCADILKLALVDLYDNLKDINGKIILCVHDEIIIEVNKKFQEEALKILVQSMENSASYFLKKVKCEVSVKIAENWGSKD
Nature of the assay: […]'-5' exonuclease assay, 2-aminopurine release from blunt-ended dsDNA. The class given is biochemical.

For assay [2], the target named is T1, WTapPOL (intact exonuclease domain). Described as above. The format is biochemical. The conditions noted are these: read-out: % inhibition at 100 μM.

Bounds are passed on as bounds.

One may read the IC50 as the concentration needed to halve the response being measured. Read a low IC50 as greater potency in that assay. `CC(C)(C)c1ccc(S(=O)(=O)Nc2c3c(nn2-c2ccc(Cl)cc2)CSC3)cc1` [6b] displayed an IC50 in assay [1] of 21 ± 2.5 µM.

`CC(C)(C)c1ccc(S(=O)(=O)Nc2c3c(nn2-c2ccc(C(F)(F)F)cc2)CSC3)cc1` [6f]: the midpoint of inhibition in assay [1], the IC50, lay at 16 ± 0.9 µM.

One may read the inhibition as the drop in the measured response relative to a control, in per cent. As for `CC(C)(C)c1ccc(NC(=O)Nc2c3c(nn2-c2cccc(C(F)(F)F)c2)CSC3)cc1` [7e], in assay [2], the inhibition at 100 µM was under 50%.

`CC(C)(C)c1ccc(NC(=O)Nc2c3c(nn2-c2ccc(Cl)cc2)CSC3)cc1` [7b]: in assay [2], the inhibition at 100 µM was under 50%.

As to `CC(C)(C)c1ccc(NC(=O)Nc2c3c(nn2-c2cccc(Cl)c2)CSC3)cc1` [7a], the inhibition at 100 µM in assay [2] was under 50%.

In turn, `CC(C)(C)c1ccc(S(=O)(=O)Nc2c3c(nn2-c2cccc(Cl)c2)CSC3)cc1` [6a] yielded an IC50 in assay [1] of 40 ± 5.7 µM.

On to `CC(C)(C)c1ccc(NC(=O)Nc2c3c(nn2-c2cccc(Cl)c2)COC3)cc1` [13a], for which the inhibition at 100 µM in assay [2] is under 50%.

Take `CC(C)(C)c1ccc(C(=O)Nc2c3c(nn2-c2cccc(Cl)c2)CSC3)cc1` [5a, MMV666123]: in assay [2], the inhibition at 100 µM was under 50%.

For `CC(C)(C)c1ccc(S(=O)(=O)Nc2c3c(nn2-c2cccc(C(F)(F)F)c2)CSC3)cc1` [6e], the IC50 in assay [1] was 41 ± 6.7 µM.

Values taken from doi:10.1101/2022.03.07.483284v1 (biorxiv, 2022).
